We go through 17 molecules from PubChem BioAssay (NCI).

“And” between values parts separate entries of the source, which are not always exact repeats. Equal entries are not always repeated.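 Step 1: Grow cells in 96-well plates. Step 2: Expose to compound for 48 hours at 5 concentrations. Step 3: Interpolate endpoints linearly; if unreached, use highest concentration. At the GI50, growth is halved. Definition used: TGI = concentration required for complete inhibition of growth.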

The test system of one assay is IGROV1 ovarian. The assay can be described thus: NCI-60 cell line screen, 48 h.
`CSc1ccc(C2=Nn3c(nnc3-c3ccc(F)c(Cl)c3)SC2)cc1`: the GI50 was 13.1 µM and the TGI was 44.4 µM.
Consider `CNC(=O)Nc1ccc(-c2nc(N3CCOCC3)nc3c2cnn3C2CCOCC2)cc1`, for which the GI50 was 0.0794 µM and the TGI stood at 0.493 µM.
Turning to `NCCCCNCCCNC(=O)CNC(=O)CC(O)C(N)CCCC(NC(=O)C(CN)NC(=O)C(O)CNC(=O)CC(N)c1ccc(O)cc1)C(=O)O` (stereo unspecified), the TGI is over 10 µM.
For `N/C(=N\OC(=O)c1ccccc1)C(C(=O)NOC(=O)c1ccccc1)C1CCCCC1` (stereo unspecified), the GI50 is 1.66 µM and the TGI stood at 3.92 µM.
In turn, `CCOc1ccc(N=Nc2ccc3cc(/C(C)=N/NC(=O)/C(C#N)=C\c4ccc(N(CCC#N)CCC#N)cc4)c(=O)oc3c2)cc1` showed a TGI of over 10 µM.
Turning to `O=C(O)c1cc[c]([Hg][S]c2ncnc3nc[nH]c23)cc1`, the GI50 is 9.25 µM and the TGI is 23.8 µM.
Molecule `CC(C)(C)OC(=O)NCC(C#N)CNC(=O)OC(C)(C)C` showed a TGI of over 100 µM.
`O=C(Nc1ccc(OC(F)(F)F)cc1)c1sccc1NCc1ccnc2ccccc12`: the GI50 was 1.68 µM and the TGI was 6.37 µM.
For `CCN(CC)c1ccc(NC(=S)NN(C)C)cc1`, the TGI is over 10 µM.
Turning to `Nc1cc(N)c2nc(-c3ccccc3)c(Oc3ccc(F)cc3)nc2c1`, the GI50 is 28.5 µM and the TGI was over 100 µM.
The like results for `COc1ccc(-c2cc(-c3ccc(Cl)cc3)c(C#N)c(=O)n2CCCCC(=O)Nc2ccccc2N)cc1` were, in that order, 4.9 µM and over 100 µM.
With `CN1CCCN(CCNc2nccc(-c3c(-c4cccc(O)c4)nc4sccn34)n2)S1(=O)=O`, the GI50 was 3.93 µM and 5.33 µM; the TGI is 16.6 µM and 43.6 µM.
As for `CCOC(=O)c1c(NC(=O)c2ccc(C(C)C)cc2)sc2c(CN(C)C)c(O)ccc12`, the GI50 is 2.89 µM and the TGI is 8.69 µM.
As to `COc1ccc(C(=O)N2c3ccccc3Sc3ccccc32)c(F)c1`, the GI50 was 0.808 µM and the TGI is over 100 µM.
As to `CC1(C)N=C(N)N=C(N)N1c1ccc(CCc2ccccc2)c(Cl)c1`, the GI50 was 0.0668 µM and the TGI turned out to be 15.7 µM.
Regarding `Cc1ccc(C(=O)Nc2ccc(CN3CCN(C)CC3)c(C(F)(F)F)c2)cc1C#Cc1cnc(N)c2ccc(F)cc12`, the GI50 is 0.0575 µM and the TGI came to 0.501 µM.
`CC1(C)CCC(C)(C)c2cc(C(=O)Nc3ccc(C(=O)O)cc3)ccc21` showed a TGI of 63.7 µM.

The subject of a further assay is RPMI-8226 leukemia. The assay can be described thus: NCI-60 cell line screen, 48 h.
Regarding `CSc1ccc(C2=Nn3c(nnc3-c3ccc(F)c(Cl)c3)SC2)cc1`, the GI50 was 18.6 µM and the TGI is over 100 µM.
Turning to `CNC(=O)Nc1ccc(-c2nc(N3CCOCC3)nc3c2cnn3C2CCOCC2)cc1`, the GI50 was 0.205 µM.
Consider `NCCCCNCCCNC(=O)CNC(=O)CC(O)C(N)CCCC(NC(=O)C(CN)NC(=O)C(O)CNC(=O)CC(N)c1ccc(O)cc1)C(=O)O` (stereo unspecified), for which the TGI was over 10 µM.
Regarding `N/C(=N\OC(=O)c1ccccc1)C(C(=O)NOC(=O)c1ccccc1)C1CCCCC1` (stereo unspecified), the GI50 was 3.12 µM and the TGI is 12.2 µM.
Turning to `CCOc1ccc(N=Nc2ccc3cc(/C(C)=N/NC(=O)/C(C#N)=C\c4ccc(N(CCC#N)CCC#N)cc4)c(=O)oc3c2)cc1`, the TGI is over 10 µM.
With `O=C(O)c1cc[c]([Hg][S]c2ncnc3nc[nH]c23)cc1`, the GI50 is 4.91 µM and the TGI is 28.2 µM.
`CC(C)(C)OC(=O)NCC(C#N)CNC(=O)OC(C)(C)C` displayed a TGI of over 100 µM.
In the case of `O=C(Nc1ccc(OC(F)(F)F)cc1)c1sccc1NCc1ccnc2ccccc12`, the GI50 was 3.32 µM and the TGI was found to be 29.8 µM.
As for `CCN(CC)c1ccc(NC(=S)NN(C)C)cc1`, the TGI is over 10 µM.
As for `Nc1cc(N)c2nc(-c3ccccc3)c(Oc3ccc(F)cc3)nc2c1`, the GI50 was 12.2 µM and the TGI was 46.4 µM.
As for `COc1ccc(-c2cc(-c3ccc(Cl)cc3)c(C#N)c(=O)n2CCCCC(=O)Nc2ccccc2N)cc1`, the GI50 is 0.789 µM and the TGI was determined as 6.68 µM.
In the case of `CN1CCCN(CCNc2nccc(-c3c(-c4cccc(O)c4)nc4sccn34)n2)S1(=O)=O`, the GI50 is 16.7 µM and 15.2 µM; the TGI was 37.2 µM and 41.3 µM.
With `CCOC(=O)c1c(NC(=O)c2ccc(C(C)C)cc2)sc2c(CN(C)C)c(O)ccc12`, the GI50 is 1.84 µM and the TGI was 4.6 µM.
For `COc1ccc(C(=O)N2c3ccccc3Sc3ccccc32)c(F)c1`, the GI50 is 0.922 µM and the TGI came to 63 µM.
For `CC1(C)N=C(N)N=C(N)N1c1ccc(CCc2ccccc2)c(Cl)c1`, the GI50 is 0.336 µM and the TGI came to 14 µM.
Turning to `Cc1ccc(C(=O)Nc2ccc(CN3CCN(C)CC3)c(C(F)(F)F)c2)cc1C#Cc1cnc(N)c2ccc(F)cc12`, the GI50 was 0.53 µM and the TGI worked out at 1.64 µM.
With `CC1(C)CCC(C)(C)c2cc(C(=O)Nc3ccc(C(=O)O)cc3)ccc21`, the TGI is 57.7 µM.

Another assay relates to SK-MEL-5 melanoma. Kind of assay: NCI-60 cell line screen, 48 h.
Take `CSc1ccc(C2=Nn3c(nnc3-c3ccc(F)c(Cl)c3)SC2)cc1`: the GI50 is 11.9 µM and the TGI turned out to be 52.7 µM.
The like results for `CNC(=O)Nc1ccc(-c2nc(N3CCOCC3)nc3c2cnn3C2CCOCC2)cc1` were, in that order, 0.208 µM and 1.22 µM.
As to `NCCCCNCCCNC(=O)CNC(=O)CC(O)C(N)CCCC(NC(=O)C(CN)NC(=O)C(O)CNC(=O)CC(N)c1ccc(O)cc1)C(=O)O` (stereo unspecified), the TGI is over 10 µM.
Regarding `N/C(=N\OC(=O)c1ccccc1)C(C(=O)NOC(=O)c1ccccc1)C1CCCCC1` (stereo unspecified), the GI50 was 10.3 µM and the TGI worked out at 22.8 µM.
In turn, `CCOc1ccc(N=Nc2ccc3cc(/C(C)=N/NC(=O)/C(C#N)=C\c4ccc(N(CCC#N)CCC#N)cc4)c(=O)oc3c2)cc1` showed a TGI of over 10 µM.
Regarding `O=C(O)c1cc[c]([Hg][S]c2ncnc3nc[nH]c23)cc1`, the GI50 is 14.1 µM and the TGI is 36.4 µM.
As for `CC(C)(C)OC(=O)NCC(C#N)CNC(=O)OC(C)(C)C`, the TGI was over 100 µM.
`O=C(Nc1ccc(OC(F)(F)F)cc1)c1sccc1NCc1ccnc2ccccc12`: the GI50 is 2.37 µM and the TGI was 7.21 µM.
For the molecule `CCN(CC)c1ccc(NC(=S)NN(C)C)cc1`, the TGI is over 10 µM.
